Data reported in patent US20220324815A1, “2-PHENOXY-PYRIMIDINE DERIVATIVES AS HERBICIDAL COMPOUNDS” (SYNGENTA CROP PROTECTION AG, priority 2019, published 2022).

How the values were obtained:
Format in all cases: in vivo
Details in all cases: 250 g/ha unless otherwise stated, evaluated after 13 days, five-point scale
[1] = test system: Setaria faberi (SETFA); experiment: Test 1 glasshouse herbicide test, post-emergence application (Table B1)
Summary of the method: (§1)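 Pots sown in standard soil; sprayed 1 day (pre-emergence) or 8 days (post-emergence) after sowing at 250 g/ha unless stated, in acetone/water (50:50) with 0.5% Tween 20. Glasshouse 24/16 °C, 14 h light, 65% humidity; damage scored at 13 days on a 1–5 scale (5=81–100%, 1=0–20%).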

[2] = test system: Amaranthus retoflexus (AMARE); experiment: as above
Summary of the method: as §1

[3] = test system: Echinochloa crus-galli (ECHCG); experiment: as above
Summary of the method: as §1

[4] = test system: Ipomoea hederacea (IPOHE); experiment: as above
Summary of the method: as §1

[5] = test system: Solanum nigrum (SOLNI); experiment: as above
Summary of the method: as §1

[6] = test system: Lolium perenne (LOLPE); experiment: as above
Summary of the method: as §1

[7] = test system: Setaria faberi (SETFA); experiment: Test 1 glasshouse herbicide test, pre-emergence application (Table B2)
Summary of the method: as §1

[8] = test system: Amaranthus retoflexus (AMARE); experiment: as above
Summary of the method: as §1

[9] = test system: Echinochloa crus-galli (ECHCG); experiment: as above
Summary of the method: as §1

[10] = test system: Ipomoea hederacea (IPOHE); experiment: as above
Summary of the method: as §1

[11] = test system: Solanum nigrum (SOLNI); experiment: as above
Summary of the method: as §1

[12] = test system: Lolium perenne (LOLPE); experiment: as above
Summary of the method: as §1

O=S(=O)(CCC(F)(F)F)c1c(F)cccc1Oc1ncc(Cl)cn1 [Compound A9]
% phytotoxicity SETFA, post-emergence application [1]: 4 (4=61 to 80%)
% phytotoxicity AMARE, post-emergence application [2]: 5 (5=81 to 100%)
% phytotoxicity ECHCG, post-emergence application [3]: 3 (3=41 to 60%)
% phytotoxicity IPOHE, post-emergence application [4]: 3 (3=41 to 60%)
% phytotoxicity SOLNI, post-emergence application [5]: 5 (5=81 to 100%)
% phytotoxicity LOLPE, post-emergence application [6]: 3 (3=41 to 60%)
% phytotoxicity SETFA, pre-emergence application [7]: 5 (5=81 to 100%)
% phytotoxicity AMARE, pre-emergence application [8]: 5 (5=81 to 100%)
% phytotoxicity ECHCG, pre-emergence application [9]: 4 (4=61 to 80%)
% phytotoxicity IPOHE, pre-emergence application [10]: 4 (4=61 to 80%)
% phytotoxicity SOLNI, pre-emergence application [11]: 5 (5=81 to 100%)
% phytotoxicity LOLPE, pre-emergence application [12]: 4 (4=61 to 80%)

FC(F)(F)CCSc1c(Cl)cccc1Oc1ncc(Cl)cn1 [Compound A10, 5-chloro-2-[3-chloro-2-(3,3,3-trifluoropropylsulfanyl)phenoxy]pyrimidine]
% phytotoxicity SETFA, post-emergence application [1]: 5 (5=81 to 100%)
% phytotoxicity AMARE, post-emergence application [2]: 5 (5=81 to 100%)
% phytotoxicity ECHCG, post-emergence application [3]: 5 (5=81 to 100%)
% phytotoxicity IPOHE, post-emergence application [4]: 4 (4=61 to 80%)
% phytotoxicity SOLNI, post-emergence application [5]: 5 (5=81 to 100%)
% phytotoxicity LOLPE, post-emergence application [6]: 5 (5=81 to 100%)
% phytotoxicity SETFA, pre-emergence application [7]: 5 (5=81 to 100%)
% phytotoxicity AMARE, pre-emergence application [8]: 5 (5=81 to 100%)
% phytotoxicity ECHCG, pre-emergence application [9]: 5 (5=81 to 100%)
% phytotoxicity IPOHE, pre-emergence application [10]: 3 (3=41 to 60%)
% phytotoxicity SOLNI, pre-emergence application [11]: 4 (4=61 to 80%)
% phytotoxicity LOLPE, pre-emergence application [12]: 4 (4=61 to 80%)

[O-][S+](CCC(F)(F)F)c1c(Cl)cccc1Oc1ncc(Cl)cn1 (stereo not drawn) [Compound A11]
% phytotoxicity SETFA, post-emergence application [1]: 5 (5=81 to 100%)
% phytotoxicity AMARE, post-emergence application [2]: 5 (5=81 to 100%)
% phytotoxicity ECHCG, post-emergence application [3]: 5 (5=81 to 100%)
% phytotoxicity IPOHE, post-emergence application [4]: 5 (5=81 to 100%)
% phytotoxicity SOLNI, post-emergence application [5]: 5 (5=81 to 100%)
% phytotoxicity LOLPE, post-emergence application [6]: 4 (4=61 to 80%)
% phytotoxicity SETFA, pre-emergence application [7]: 5 (5=81 to 100%)
% phytotoxicity AMARE, pre-emergence application [8]: 5 (5=81 to 100%)
% phytotoxicity ECHCG, pre-emergence application [9]: 5 (5=81 to 100%)
% phytotoxicity IPOHE, pre-emergence application [10]: 5 (5=81 to 100%)
% phytotoxicity SOLNI, pre-emergence application [11]: 5 (5=81 to 100%)
% phytotoxicity LOLPE, pre-emergence application [12]: 5 (5=81 to 100%)

O=S(=O)(CCC(F)(F)F)c1c(Cl)cccc1Oc1ncc(Cl)cn1 [Compound A12]
% phytotoxicity SETFA, post-emergence application [1]: 5 (5=81 to 100%)
% phytotoxicity AMARE, post-emergence application [2]: 5 (5=81 to 100%)
% phytotoxicity ECHCG, post-emergence application [3]: 5 (5=81 to 100%)
% phytotoxicity IPOHE, post-emergence application [4]: 4 (4=61 to 80%)
% phytotoxicity SOLNI, post-emergence application [5]: 5 (5=81 to 100%)
% phytotoxicity LOLPE, post-emergence application [6]: 5 (5=81 to 100%)
% phytotoxicity SETFA, pre-emergence application [7]: 5 (5=81 to 100%)
% phytotoxicity AMARE, pre-emergence application [8]: 5 (5=81 to 100%)
% phytotoxicity ECHCG, pre-emergence application [9]: 5 (5=81 to 100%)
% phytotoxicity IPOHE, pre-emergence application [10]: 5 (5=81 to 100%)
% phytotoxicity SOLNI, pre-emergence application [11]: 5 (5=81 to 100%)
% phytotoxicity LOLPE, pre-emergence application [12]: 5 (5=81 to 100%)

N#Cc1cccc(Oc2ncc(Cl)cn2)c1SCCC(F)(F)F [Compound A13]
% phytotoxicity SETFA, post-emergence application [1]: 5 (5=81 to 100%)
% phytotoxicity AMARE, post-emergence application [2]: 5 (5=81 to 100%)
% phytotoxicity ECHCG, post-emergence application [3]: 5 (5=81 to 100%)
% phytotoxicity IPOHE, post-emergence application [4]: 4 (4=61 to 80%)
% phytotoxicity SOLNI, post-emergence application [5]: 5 (5=81 to 100%)
% phytotoxicity LOLPE, post-emergence application [6]: 5 (5=81 to 100%)
% phytotoxicity SETFA, pre-emergence application [7]: 5 (5=81 to 100%)
% phytotoxicity AMARE, pre-emergence application [8]: 5 (5=81 to 100%)
% phytotoxicity ECHCG, pre-emergence application [9]: 5 (5=81 to 100%)
% phytotoxicity IPOHE, pre-emergence application [10]: 4 (4=61 to 80%)
% phytotoxicity SOLNI, pre-emergence application [11]: 5 (5=81 to 100%)
% phytotoxicity LOLPE, pre-emergence application [12]: 5 (5=81 to 100%)
